Results taken from ChEMBL document CHEMBL1158190, “New Tetracyclic Sesterterpenes from Cydonia vulgaris” (J Nat Prod, 1996).
Activity calls are given as the source filed them. The calls are words filed in the database; no cut-off is given here.

Each molecule was assayed on Human immunodeficiency virus 1 (assay: Antiviral activity against 10 CCID50 units of HIV1 infected in human C8166 cells at 2.5 ug/mL after 5 to 7 days).
Format: functional, organism-based
In the case of `CC1(C)CCC[C@]2(C)[C@H]3CC[C@@](O)(CO)[C@H](CC(O)C4=CC(=O)OC4OC(=O)/C=C/c4ccccc4)[C@]3(C)CC[C@@H]12` (some centres undefined), the Activity is reported as “inactive”. `CC(=O)OC[C@]1(O)CC[C@@H]2[C@@]3(C)CCCC(C)(C)[C@@H]3CC[C@@]2(C)[C@H]1CC(O)C1=CC(=O)OC1OC(C)=O` (some centres undefined) was tested, and the Activity was “inactive”. In the case of `CC(=O)OC1OC(=O)C=C1C(O)C[C@H]1[C@](O)(CO)CC[C@@H]2[C@@]3(C)CCCC(C)(C)[C@@H]3CC[C@]21C` (some centres undefined), the Activity is reported as “inactive”. For `CC(=O)OC[C@]1(O)CC[C@@H]2[C@@]3(C)CCCC(C)(C)[C@@H]3CC[C@@]2(C)[C@H]1CC(O)C1=CC(=O)OC1OC(=O)/C=C/c1ccccc1` (some centres undefined), the Activity was “inactive”.
